Source: patent US20080171095A1, “Carnosine-related compounds for preventing and treating impaired neurovascular blood flow” (Michigan State University, priority 2005, published 2008)

Tested on: Male C57BL/6J mice, permanent occlusion of the middle cerebral artery (focal ischemia)
Experiment: Focal ischemia in mice: permanent occlusion of the middle cerebral artery, infarct volume by 2,3,5-triphenyl-tetrazolium chloride staining
Assay type: in vivo
Conditions: assessed 24 hours after occlusion; for Reduction of infarct volume versus saline-injected control mice: 30 minutes before artery occlusion (FIG. 1)
Procedure: Male C57BL/6J mice were subjected to a permanent occlusion of the middle cerebral artery. For prophylactic studies, carnosine (100 mg/kg or 500 mg/kg, I.P.) was administered thirty (30) minutes (FIG. 1) or sixty (60) minutes (FIG. 2) before artery occlusion. For treatment studies, carnosine (1000 mg/kg, I.P.) was administered sixty (60) minutes after artery occlusion (FIG. 2).
Damage to the neural tissue (i.e., infarct volume) was assessed twenty-four (24) hours after occlusion by 2,3,5-triphenyl-tetrazolium chloride staining. Infarct volumes were reduced by 49% and 65% in mice prophylactically given 100 mg/kg and 500 mg/kg carnosine, respectively, versus saline-injected control mice. (FIG. 1) This protective dose dependence was reproduced in a second experiment that compared a post-occlusion carnosine administration. In this experiment, infarct volumes were reduced by 40% and 52%, respectively in mice prophylactically given 100 mg/kg and 500 mg/kg carnosine. A 40% reduction in infarct volume was also observed when mice were administered 1000 mg/kg carnosine after the occlusion.

`NCCC(=O)N[C@@H](Cc1c[nH]cn1)C(=O)O` [carnosine, β-alanyl-L-histidine] was tested, and the “Reduction of infarct volume versus saline-injected control mice” value (100 mg/kg I.P., prophylactic) was 49%, the “Reduction of infarct volume versus saline-injected control mice” value (500 mg/kg I.P., prophylactic) was 65% and the “Reduction of infarct volume” value (second experiment (FIG. 2): 100 mg/kg I.P., prophylactic, 60 minutes before artery occlusion) was 40%. For the same compound, the “Reduction of infarct volume” value (second experiment (FIG. 2): 500 mg/kg I.P., prophylactic, 60 minutes before artery occlusion) was 52% and the “Reduction of infarct volume” value (second experiment (FIG. 2): 1000 mg/kg I.P., treatment, 60 minutes after artery occlusion) was 40%.
